Laboratory results published in publication PMC11233931, “Remodeling tumor‐associated macrophage for anti‐cancer effects by rational design of irreversible inhibition of mitogen‐activated protein kinase‐activated protein kinase 2” (MedComm, 2024).

How the values were obtained:
Test in all cases: Eurofins kinase selectivity profile against 380 other human recombinant kinases (Table S2)
Assay type in all cases: biochemical
[1] = target: T1, 380 human recombinant protein kinases (Homo sapiens, UniProt O14965); conditions: Aurora-A(h), read-out: Inhibition rate
T1 construct: purchased Eurofins (Celle Lévescault)
T1 sequence (O14965 1-403): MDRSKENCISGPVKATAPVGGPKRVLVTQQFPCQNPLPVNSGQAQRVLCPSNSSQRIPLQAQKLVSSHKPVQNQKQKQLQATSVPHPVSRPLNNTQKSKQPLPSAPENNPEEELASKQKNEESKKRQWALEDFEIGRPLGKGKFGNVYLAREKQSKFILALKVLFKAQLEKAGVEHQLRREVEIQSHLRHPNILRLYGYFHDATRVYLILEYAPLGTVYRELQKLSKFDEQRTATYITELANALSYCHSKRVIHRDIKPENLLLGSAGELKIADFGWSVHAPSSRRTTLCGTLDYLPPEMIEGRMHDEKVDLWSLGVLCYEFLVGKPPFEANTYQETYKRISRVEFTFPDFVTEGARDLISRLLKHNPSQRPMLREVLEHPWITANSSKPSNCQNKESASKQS
Outline: (§1)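 Outsourced panel: 380 human recombinant kinases; inhibitor tested at various concentrations; purpose: MK2 selectivity check.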

[2] = target: T2, 380 human recombinant protein kinases (Homo sapiens, UniProt O43318); conditions: TAK1(h), read-out: Inhibition rate (%)
T2 construct: purchased Eurofins (Celle Lévescault)
T2 sequence (O43318 1-606): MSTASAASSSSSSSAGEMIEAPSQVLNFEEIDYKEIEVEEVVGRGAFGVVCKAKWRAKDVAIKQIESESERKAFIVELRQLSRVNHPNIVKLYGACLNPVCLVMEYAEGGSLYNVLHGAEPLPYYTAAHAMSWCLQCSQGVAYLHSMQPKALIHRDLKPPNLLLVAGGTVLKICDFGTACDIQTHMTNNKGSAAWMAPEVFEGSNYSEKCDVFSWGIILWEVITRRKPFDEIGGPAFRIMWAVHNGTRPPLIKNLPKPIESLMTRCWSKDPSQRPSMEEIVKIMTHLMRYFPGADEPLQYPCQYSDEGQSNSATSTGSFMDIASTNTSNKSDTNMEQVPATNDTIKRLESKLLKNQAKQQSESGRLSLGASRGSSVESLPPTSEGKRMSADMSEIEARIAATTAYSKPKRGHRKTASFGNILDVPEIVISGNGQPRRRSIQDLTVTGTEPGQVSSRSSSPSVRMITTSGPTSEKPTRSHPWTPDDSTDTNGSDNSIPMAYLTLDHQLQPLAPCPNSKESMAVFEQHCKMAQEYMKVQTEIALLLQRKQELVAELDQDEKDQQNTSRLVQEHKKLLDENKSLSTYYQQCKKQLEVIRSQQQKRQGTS
Outline: as §1

[3] = target: T3, 380 human recombinant protein kinases (Homo sapiens, UniProt P29323); conditions: EphB2(h), read-out: Inhibition rate
T3 construct: purchased Eurofins (Celle Lévescault)
T3 sequence (P29323 19-1055): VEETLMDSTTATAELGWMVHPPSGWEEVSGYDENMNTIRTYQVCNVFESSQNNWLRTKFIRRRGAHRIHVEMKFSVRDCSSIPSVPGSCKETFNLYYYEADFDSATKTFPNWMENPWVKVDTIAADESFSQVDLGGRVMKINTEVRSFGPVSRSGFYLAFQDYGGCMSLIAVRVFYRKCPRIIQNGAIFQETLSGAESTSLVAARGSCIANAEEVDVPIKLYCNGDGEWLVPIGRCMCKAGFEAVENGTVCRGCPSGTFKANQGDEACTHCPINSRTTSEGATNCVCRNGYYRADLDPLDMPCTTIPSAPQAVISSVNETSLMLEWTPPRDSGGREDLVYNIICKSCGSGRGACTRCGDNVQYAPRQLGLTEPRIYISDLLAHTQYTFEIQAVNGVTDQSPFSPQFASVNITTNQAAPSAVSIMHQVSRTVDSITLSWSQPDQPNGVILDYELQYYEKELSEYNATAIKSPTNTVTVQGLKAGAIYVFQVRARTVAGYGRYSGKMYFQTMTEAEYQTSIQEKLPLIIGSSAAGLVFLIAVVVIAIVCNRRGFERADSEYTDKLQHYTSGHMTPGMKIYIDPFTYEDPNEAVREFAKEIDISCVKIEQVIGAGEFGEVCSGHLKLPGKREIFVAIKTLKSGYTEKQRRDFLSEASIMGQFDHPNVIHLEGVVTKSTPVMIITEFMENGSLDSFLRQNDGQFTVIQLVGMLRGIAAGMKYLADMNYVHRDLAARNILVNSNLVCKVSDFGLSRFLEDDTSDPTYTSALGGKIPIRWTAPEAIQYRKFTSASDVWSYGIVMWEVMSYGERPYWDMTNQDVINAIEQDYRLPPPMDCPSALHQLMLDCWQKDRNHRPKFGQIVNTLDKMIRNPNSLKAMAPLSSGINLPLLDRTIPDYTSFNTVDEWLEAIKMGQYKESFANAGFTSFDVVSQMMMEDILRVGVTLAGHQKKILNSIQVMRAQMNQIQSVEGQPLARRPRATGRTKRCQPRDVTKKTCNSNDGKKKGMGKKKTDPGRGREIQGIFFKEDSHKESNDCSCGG
Outline: as §1

[4] = target: T4, 380 human recombinant protein kinases (Homo sapiens, UniProt Q5TCX8); conditions: MLK4(h), read-out: Inhibition rate
T4 construct: purchased Eurofins (Celle Lévescault)
Outline: as §1

[5] = target: T5, 380 human recombinant protein kinases (Homo sapiens, UniProt Q86UE8); conditions: TLK2(h), read-out: Inhibition rate (%)
T5 construct: purchased Eurofins (Celle Lévescault)
Outline: as §1

[6] = target: T6, 380 human recombinant protein kinases (Homo sapiens, UniProt Q92918); conditions: HPK1(h), read-out: Inhibition rate
T6 construct: purchased Eurofins (Celle Lévescault)
Outline: as §1

T5 sequence (Q86UE8 whole entry): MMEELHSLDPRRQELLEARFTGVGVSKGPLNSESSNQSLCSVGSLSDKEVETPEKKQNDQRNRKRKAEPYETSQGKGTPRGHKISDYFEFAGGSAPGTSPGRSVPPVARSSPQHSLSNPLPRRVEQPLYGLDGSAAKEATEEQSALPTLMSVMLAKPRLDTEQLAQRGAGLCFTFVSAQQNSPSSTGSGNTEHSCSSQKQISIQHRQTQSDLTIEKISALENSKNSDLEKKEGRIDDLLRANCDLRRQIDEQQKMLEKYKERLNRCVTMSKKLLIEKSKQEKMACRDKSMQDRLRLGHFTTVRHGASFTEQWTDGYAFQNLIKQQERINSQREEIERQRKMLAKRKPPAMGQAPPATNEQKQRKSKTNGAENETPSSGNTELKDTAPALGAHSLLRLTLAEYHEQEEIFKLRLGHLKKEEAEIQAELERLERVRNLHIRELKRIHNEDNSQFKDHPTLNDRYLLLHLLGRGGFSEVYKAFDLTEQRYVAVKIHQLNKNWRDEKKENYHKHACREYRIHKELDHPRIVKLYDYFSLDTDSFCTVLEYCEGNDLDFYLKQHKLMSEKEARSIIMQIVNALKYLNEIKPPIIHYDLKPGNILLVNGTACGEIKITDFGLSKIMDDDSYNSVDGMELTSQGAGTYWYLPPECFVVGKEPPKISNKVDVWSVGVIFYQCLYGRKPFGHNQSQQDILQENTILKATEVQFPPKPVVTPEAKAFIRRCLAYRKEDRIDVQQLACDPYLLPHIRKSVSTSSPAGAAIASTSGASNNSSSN
T4 sequence (Q5TCX8 whole entry): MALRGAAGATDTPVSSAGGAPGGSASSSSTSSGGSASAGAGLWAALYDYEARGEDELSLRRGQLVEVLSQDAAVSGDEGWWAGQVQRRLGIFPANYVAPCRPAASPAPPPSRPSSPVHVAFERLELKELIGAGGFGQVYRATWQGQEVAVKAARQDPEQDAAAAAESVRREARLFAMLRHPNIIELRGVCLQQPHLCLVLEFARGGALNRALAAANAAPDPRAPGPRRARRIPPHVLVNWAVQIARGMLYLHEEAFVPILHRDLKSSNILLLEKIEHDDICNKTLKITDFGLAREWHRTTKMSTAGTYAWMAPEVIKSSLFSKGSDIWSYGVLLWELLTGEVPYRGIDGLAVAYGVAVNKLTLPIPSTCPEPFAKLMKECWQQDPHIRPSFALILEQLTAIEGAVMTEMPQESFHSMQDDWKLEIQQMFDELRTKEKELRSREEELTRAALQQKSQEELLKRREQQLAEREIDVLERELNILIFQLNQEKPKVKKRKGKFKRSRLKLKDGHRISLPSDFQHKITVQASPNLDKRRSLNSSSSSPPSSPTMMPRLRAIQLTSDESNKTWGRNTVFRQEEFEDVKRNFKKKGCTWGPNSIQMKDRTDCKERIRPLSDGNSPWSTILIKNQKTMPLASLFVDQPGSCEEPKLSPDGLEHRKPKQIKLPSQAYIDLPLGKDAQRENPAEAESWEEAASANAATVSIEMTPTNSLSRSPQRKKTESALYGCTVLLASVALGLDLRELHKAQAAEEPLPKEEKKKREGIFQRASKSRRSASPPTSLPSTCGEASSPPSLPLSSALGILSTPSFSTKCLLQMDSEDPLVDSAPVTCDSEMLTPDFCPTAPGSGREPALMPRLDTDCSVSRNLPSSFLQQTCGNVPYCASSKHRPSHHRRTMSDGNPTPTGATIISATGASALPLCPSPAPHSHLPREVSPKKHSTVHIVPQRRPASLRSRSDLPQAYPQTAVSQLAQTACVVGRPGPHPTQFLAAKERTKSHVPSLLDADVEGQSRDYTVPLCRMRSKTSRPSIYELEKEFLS
T6 sequence (Q92918 whole entry): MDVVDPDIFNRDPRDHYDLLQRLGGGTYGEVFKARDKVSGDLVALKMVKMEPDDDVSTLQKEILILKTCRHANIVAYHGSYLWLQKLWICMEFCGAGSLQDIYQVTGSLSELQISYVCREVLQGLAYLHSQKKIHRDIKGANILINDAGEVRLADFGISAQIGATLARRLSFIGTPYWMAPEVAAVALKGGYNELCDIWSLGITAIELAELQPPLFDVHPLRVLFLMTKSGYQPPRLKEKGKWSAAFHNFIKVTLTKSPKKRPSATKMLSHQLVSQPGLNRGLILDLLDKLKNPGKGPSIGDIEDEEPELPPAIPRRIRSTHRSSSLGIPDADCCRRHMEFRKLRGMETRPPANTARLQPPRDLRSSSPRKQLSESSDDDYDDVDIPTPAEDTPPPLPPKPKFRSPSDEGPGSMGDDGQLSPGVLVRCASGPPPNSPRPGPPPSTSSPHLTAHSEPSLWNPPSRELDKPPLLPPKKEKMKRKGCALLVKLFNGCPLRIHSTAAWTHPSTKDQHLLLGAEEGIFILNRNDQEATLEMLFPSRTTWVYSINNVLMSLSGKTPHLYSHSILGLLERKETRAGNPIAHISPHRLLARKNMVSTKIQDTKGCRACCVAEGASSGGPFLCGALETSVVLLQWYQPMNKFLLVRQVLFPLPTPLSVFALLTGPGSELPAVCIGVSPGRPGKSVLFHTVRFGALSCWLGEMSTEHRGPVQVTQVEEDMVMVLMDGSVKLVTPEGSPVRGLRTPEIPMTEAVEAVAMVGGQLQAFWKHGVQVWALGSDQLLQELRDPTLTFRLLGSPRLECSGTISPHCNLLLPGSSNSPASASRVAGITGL

Question: With `C=CC(=O)Nc1cc(-c2cc(-c3cc4c([nH]3)CCNC4=O)ccn2)ccc1OC(F)(F)F` [compound 11] as the compound, how does the inhibition at 0.01 µM ([1]; 10 nM) read?
Answer: Its inhibition at 0.01 µM is -1%.

Question: And the inhibition at 0.1 µM ([1]; 100 nM)?
Answer: Its inhibition at 0.1 µM is 1%.

Question: And the inhibition at 1 µM ([1]; 1000 nM)?
Answer: The inhibition at 1 µM was 7%.

Question: What about the inhibition at 0.01 µM ([2]; 10 nM) of the same compound?
Answer: The inhibition at 0.01 µM was 9%.

Question: And the inhibition at 0.1 µM ([2]; 100 nM)?
Answer: The inhibition at 0.1 µM was 2%.

Question: What about the inhibition at 1 µM ([2]; 1000 nM) of the same compound?
Answer: The inhibition at 1 µM was 47%.

Question: And the inhibition at 0.01 µM ([3]; 10 nM)?
Answer: Its inhibition at 0.01 µM is 5%.

Question: What about the inhibition at 0.1 µM ([3]; 100 nM) of the same compound?
Answer: Its inhibition at 0.1 µM is -2%.

Question: What about the inhibition at 1 µM ([3]; 1000 nM) of the same compound?
Answer: The inhibition at 1 µM was -14%.

Question: What about the inhibition at 0.01 µM ([4]; 10 nM) of the same compound?
Answer: The inhibition at 0.01 µM was -2%.

Question: What about the inhibition at 0.1 µM ([4]; 100 nM) of the same compound?
Answer: Its inhibition at 0.1 µM is -2%.

Question: What about the inhibition at 1 µM ([4]; 1000 nM) of the same compound?
Answer: Its inhibition at 1 µM is -3%.

Question: And the inhibition at 0.01 µM ([5]; 10 nM)?
Answer: Its inhibition at 0.01 µM is 13%.

Question: And the inhibition at 0.1 µM ([5]; 100 nM)?
Answer: Its inhibition at 0.1 µM is 1%.

Question: And the inhibition at 1 µM ([5]; 1000 nM)?
Answer: The inhibition at 1 µM was -2%.

Question: And the inhibition at 0.01 µM ([6]; 10 nM)?
Answer: The inhibition at 0.01 µM was -8%.

Question: What about the inhibition at 0.1 µM ([6]; 100 nM) of the same compound?
Answer: Its inhibition at 0.1 µM is -15%.

Question: What about the inhibition at 1 µM ([6]; 1000 nM) of the same compound?
Answer: The inhibition at 1 µM was 1%.
